From paper PMC6856130, “Disrupting coupling within mycobacterial F-ATP synthases subunit ε causes dysregulated energy production and cell wall biosynthesis” (Scientific Reports, 2019)

Legend:
[1] = target: T1, Mtε (F-ATP synthase subunit ε) (Mycobacterium tuberculosis, UniProt P9WPV1); format: binding
T1 construct: gene atpC; recombinant Mtε, 121 residues (N-terminal domain M1-E87, C-terminal domain I90-D121), 15N-labeled

[2] = target: T2, F-ATP synthase (subunit ε) (Mycolicibacterium smegmatis, UniProt A0R1Z9); experiment: NADH-driven ATP synthesis of inverted membrane vesicles; format: biochemical
T2 construct: gene atpC

[3] = target: F-ATP synthase (subunit ε) (Mycobacterium tuberculosis, UniProt A1KI99); format: biochemical
[4] = target: F-ATP synthase (subunit c) (Mycobacterium tuberculosis, UniProt A1KI93); format: biochemical
Sequence of F-ATP synthase (subunit c) (A1KI93 whole entry): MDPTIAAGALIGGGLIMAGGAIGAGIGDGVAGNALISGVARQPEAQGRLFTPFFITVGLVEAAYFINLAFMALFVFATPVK
Sequence of F-ATP synthase (subunit c) (A1KI99 whole entry partner): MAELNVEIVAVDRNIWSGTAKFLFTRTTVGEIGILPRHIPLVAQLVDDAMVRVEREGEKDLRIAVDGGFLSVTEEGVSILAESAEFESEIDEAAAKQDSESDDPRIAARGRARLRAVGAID
Sequence of F-ATP synthase (subunit c) (A1KI96 whole entry partner): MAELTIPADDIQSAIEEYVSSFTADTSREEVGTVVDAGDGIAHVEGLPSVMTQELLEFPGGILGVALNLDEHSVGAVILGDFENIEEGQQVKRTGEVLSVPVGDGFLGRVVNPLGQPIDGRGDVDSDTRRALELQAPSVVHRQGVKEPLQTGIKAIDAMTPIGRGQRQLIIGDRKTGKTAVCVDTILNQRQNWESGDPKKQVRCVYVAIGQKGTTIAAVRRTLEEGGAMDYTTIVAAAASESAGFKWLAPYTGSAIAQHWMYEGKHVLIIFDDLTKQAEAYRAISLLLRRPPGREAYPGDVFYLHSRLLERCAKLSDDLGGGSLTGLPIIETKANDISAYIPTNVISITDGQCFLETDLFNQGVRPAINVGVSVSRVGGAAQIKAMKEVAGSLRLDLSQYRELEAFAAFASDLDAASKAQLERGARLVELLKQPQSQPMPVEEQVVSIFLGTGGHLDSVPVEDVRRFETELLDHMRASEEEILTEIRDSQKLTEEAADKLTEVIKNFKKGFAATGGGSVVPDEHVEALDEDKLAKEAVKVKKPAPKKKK
Sequence of F-ATP synthase (subunit c) (A1KI98 whole entry partner): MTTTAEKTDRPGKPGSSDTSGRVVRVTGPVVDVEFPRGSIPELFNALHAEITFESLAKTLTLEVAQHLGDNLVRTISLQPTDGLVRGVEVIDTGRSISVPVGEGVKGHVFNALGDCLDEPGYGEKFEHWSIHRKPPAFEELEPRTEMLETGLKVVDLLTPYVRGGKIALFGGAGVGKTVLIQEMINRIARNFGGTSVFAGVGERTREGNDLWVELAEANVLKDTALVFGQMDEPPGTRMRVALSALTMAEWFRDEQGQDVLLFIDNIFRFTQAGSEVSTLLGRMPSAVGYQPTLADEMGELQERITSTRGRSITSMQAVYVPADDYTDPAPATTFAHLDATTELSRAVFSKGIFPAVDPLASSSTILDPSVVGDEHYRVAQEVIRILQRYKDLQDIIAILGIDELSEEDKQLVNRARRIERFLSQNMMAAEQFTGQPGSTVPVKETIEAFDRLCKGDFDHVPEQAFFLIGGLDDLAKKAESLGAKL

Sequence of F-ATP synthase (subunit ε) (Mycobacterium tuberculosis, UniProt A1KI99) (A1KI99 whole entry): as the sequence (A1KI99 whole entry partner) above
Sequence of F-ATP synthase (subunit ε) (Mycobacterium tuberculosis, UniProt A1KI99) (A1KI96 whole entry partner): as the sequence (A1KI96 whole entry partner) above
Sequence of F-ATP synthase (subunit ε) (Mycobacterium tuberculosis, UniProt A1KI99) (A1KI98 whole entry partner): as the sequence (A1KI98 whole entry partner) above
Sequence of F-ATP synthase (subunit ε) (Mycobacterium tuberculosis, UniProt A1KI99) (A1KI97 whole entry partner): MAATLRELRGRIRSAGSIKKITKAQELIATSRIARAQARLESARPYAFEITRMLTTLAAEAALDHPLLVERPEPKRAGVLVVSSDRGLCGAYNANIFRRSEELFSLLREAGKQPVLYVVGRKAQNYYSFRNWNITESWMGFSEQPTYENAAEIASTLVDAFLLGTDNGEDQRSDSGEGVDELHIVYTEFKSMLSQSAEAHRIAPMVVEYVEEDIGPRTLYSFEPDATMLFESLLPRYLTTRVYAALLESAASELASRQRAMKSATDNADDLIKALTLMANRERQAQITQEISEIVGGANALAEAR
Sequence of F-ATP synthase (subunit ε) (Mycobacterium tuberculosis, UniProt A1KI99) (A1KI93 whole entry partner): as the sequence (A1KI93 whole entry) above
T1 sequence (P9WPV1 whole entry, the tested form may be a part): as the sequence (A1KI99 whole entry partner) above

O=C(O[C@@H]1Cc2c(O)cc(O)cc2O[C@@H]1c1cc(O)c(O)c(O)c1)c1cc(O)c(O)c(O)c1 [epigallocatechin gallate]
1H-15N HSQC NMR titration, Mtε:EGCG 1:2 [1]: gradual line broadening with increasing molar ratios were observed, which demonstrate binding of EGCG with Mtε | IC50 [2]: 155.6 ± 1.2 nM | IC50 [3]: 2200 ± 300 nM

COc1nc2ccc(Br)cc2cc1[C@@H](c1ccccc1)[C@@](O)(CCN(C)C)c1cccc2ccccc12 [bedaquiline]
IC50 [4]: 7.05 ± 1.32 nM
